Data as given in ChEMBL document CHEMBL1201862, “PubChem BioAssay data set” (2004).
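The compound was tested at five concentrations on cells cultured in 96-well plates, with a 48-hour exposure period. The concentration for 50% growth inhibition is given as GI50.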 Calls of active or inactive are those of the source. Cut-off read from the data, not from the text of the source: active = GI50 up to about 1.1 µM and inactive = higher.

How the values were obtained:
Assay in all cases: NCI tumour cell line growth inhibition, 48 h
786-0 = system: 786-0
A498 = system: A498
A549 = system: A549
ACHN = system: ACHN
COLO 205 = system: COLO 205
EKVX = system: EKVX
HCC 2998 = system: HCC 2998
HT-29 = system: HT-29
Malme-3M = system: Malme-3M
NCI-H460 = system: NCI-H460
NCI-H522 = system: NCI-H522
OVCAR-8 = system: OVCAR-8
SF-268 = system: SF-268
SF-539 = system: SF-539
SNB-75 = system: SNB-75
UACC-62 = system: UACC-62
LOX IMVI = system: LOX IMVI

Measured: GI50

COc1cc2cccc(/N=C/c3c(Br)ccc(OC)c3OC(C)C)c2cc1OC
inactive: 786-0 26.5 µM | A498 > 100 µM | A549 82.4 µM | ACHN 70.3 µM | COLO 205 > 100 µM | EKVX > 100 µM | HCC 2998 65.3 µM | HT-29 32.2 µM | Malme-3M 74.5 µM | NCI-H460 > 100 µM | NCI-H522 30.5 µM | OVCAR-8 44.4 µM | SF-268 36 µM | SF-539 50.6 µM | SNB-75 24.4 µM | UACC-62 45.7 µM

Cc1cc(N(CCC#N)CCC#N)ccc1/C=N\c1ccc(C(=O)NN2C(=O)/C(=C/c3ccc(N(CCC#N)CCC#N)cc3)N=C2c2cc([N+](=O)[O-])ccc2Cl)cc1
inactive: 786-0 > 100 µM | A498 > 100 µM | A549 > 100 µM | ACHN 53.8 µM | COLO 205 > 100 µM | EKVX > 100 µM | HCC 2998 > 100 µM | HT-29 80.5 µM | LOX IMVI > 100 µM | Malme-3M > 100 µM | NCI-H460 > 100 µM | OVCAR-8 > 100 µM | SF-268 > 100 µM | SF-539 > 100 µM | SNB-75 > 100 µM | UACC-62 42.5 µM

CC(C)(C)CC(C)(C)c1cc2c(O)c(c1)Cc1cc(C(C)(C)CC(C)(C)C)cc(c1O)Cc1cc(C(C)(C)CC(C)(C)C)cc(c1O)Cc1cc(C(C)(C)CC(C)(C)C)cc(c1O)Cc1cc(C(C)(C)CC(C)(C)C)cc(c1O)Cc1cc(C(C)(C)CC(C)(C)C)cc(c1O)Cc1cc(C(C)(C)CC(C)(C)C)cc(c1O)Cc1cc(C(C)(C)CC(C)(C)C)cc(c1O)C2
inactive: 786-0 > 100 µM | A549 > 100 µM | ACHN > 100 µM | COLO 205 > 100 µM | EKVX > 100 µM | HCC 2998 > 100 µM | HT-29 > 100 µM | Malme-3M > 100 µM | NCI-H460 > 100 µM | NCI-H522 > 100 µM | OVCAR-8 > 100 µM | SF-268 > 100 µM | SF-539 > 100 µM | SNB-75 23.9 µM | UACC-62 > 100 µM

O=C(c1cc(=O)c2ccc(O)cc2o1)c1ccc(Cl)cc1Cl
inactive: 786-0 28.2 µM | A498 57.3 µM | A549 > 30.8 µM | ACHN 5.24 µM | COLO 205 3.27 µM | EKVX 50.2 µM | HCC 2998 9.75 µM | HT-29 36.2 µM | LOX IMVI 3.15 µM | Malme-3M 34.4 µM | NCI-H460 6.01 µM | NCI-H522 9.89 µM | OVCAR-8 22.8 µM | SF-268 13.8 µM | SNB-75 > 82.2 µM | UACC-62 5.93 µM

O=C(CC1(O)C(=O)Nc2ccccc21)c1ccccc1O (stereo not drawn)
inactive: 786-0 > 100 µM | A498 > 100 µM | A549 > 100 µM | ACHN > 100 µM | COLO 205 > 100 µM | EKVX > 100 µM | HT-29 > 100 µM | LOX IMVI > 100 µM | Malme-3M > 100 µM | NCI-H460 > 100 µM | NCI-H522 > 100 µM | OVCAR-8 > 100 µM | SF-268 > 100 µM | SF-539 > 100 µM | SNB-75 > 100 µM | UACC-62 > 100 µM

O=C(OCc1ccccc1)N1N=NC2C1C1CC(OCc3ccccc3)(OCc3ccccc3)C2O1 (stereo not drawn)
inactive: 786-0 > 100 µM | A498 > 100 µM | A549 > 100 µM | ACHN > 100 µM | COLO 205 > 100 µM | HCC 2998 > 100 µM | HT-29 > 100 µM | LOX IMVI > 100 µM | Malme-3M > 100 µM | NCI-H460 > 100 µM | SF-268 > 100 µM | SF-539 > 100 µM | SNB-75 > 100 µM | UACC-62 > 100 µM

O/N=C1/C(=C/c2ccccc2)CCCC1C(NO)c1ccccc1 (stereo not drawn)
inactive: 786-0 > 100 µM | A498 > 100 µM | A549 40.1 µM | ACHN 68.4 µM | COLO 205 > 100 µM | EKVX 61.9 µM | HT-29 > 100 µM | LOX IMVI > 100 µM | Malme-3M 44.2 µM | NCI-H460 79.6 µM | NCI-H522 45.7 µM | OVCAR-8 64 µM | SF-268 55.7 µM | SF-539 > 100 µM | SNB-75 > 100 µM | UACC-62 70.3 µM

COc1ccc(C(=O)C2CCC(C(=O)O)C2)cc1 (stereo not drawn)
inactive: 786-0 > 100 µM | A498 > 100 µM | A549 > 100 µM | ACHN > 100 µM | COLO 205 > 100 µM | EKVX > 100 µM | HCC 2998 > 100 µM | HT-29 > 100 µM | LOX IMVI > 100 µM | Malme-3M > 100 µM | NCI-H460 > 100 µM | NCI-H522 > 100 µM | OVCAR-8 > 100 µM | SF-539 > 100 µM | SNB-75 > 100 µM | UACC-62 > 100 µM

CC1=CC(C)(c2c[nH]c3ccccc23)CC(C)(C)c2c1[nH]c1ccccc21 (stereo not drawn)
inactive: 786-0 13.8 µM | A498 17.7 µM | A549 14 µM | ACHN 17.2 µM | EKVX 15.6 µM | HCC 2998 14.5 µM | HT-29 12.9 µM | LOX IMVI 15.2 µM | Malme-3M 16.6 µM | NCI-H460 17 µM | OVCAR-8 13.7 µM | SF-268 25.1 µM | SF-539 43.2 µM | SNB-75 26.7 µM | UACC-62 15.2 µM

COc1cc(Nc2nc3cc(C)ccc3nc2-c2ccccc2)cc(OC)c1OC
inactive: 786-0 14.7 µM | A498 45.6 µM | A549 29.8 µM | ACHN 26.7 µM | COLO 205 20.2 µM | EKVX 20.7 µM | HCC 2998 12.3 µM | HT-29 14.8 µM | LOX IMVI 27.2 µM | Malme-3M 29.6 µM | NCI-H460 15.8 µM | NCI-H522 25.6 µM | OVCAR-8 36.5 µM | SF-268 11.2 µM | SNB-75 22.7 µM | UACC-62 21.5 µM

O=c1[nH]c(-c2ccc(-c3nc4cc([N+](=O)[O-])ccc4c(=O)[nH]3)cc2)nc2cc([N+](=O)[O-])ccc12
inactive: 786-0 72.9 µM | A498 16 µM | A549 > 100 µM | ACHN > 100 µM | COLO 205 > 100 µM | EKVX > 100 µM | HCC 2998 > 100 µM | HT-29 > 100 µM | LOX IMVI > 100 µM | Malme-3M > 100 µM | NCI-H460 > 100 µM | NCI-H522 > 100 µM | OVCAR-8 > 100 µM | SF-539 > 100 µM | SNB-75 42.1 µM | UACC-62 > 100 µM

COc1ccc(/C=C(\NC(=O)c2ccccc2)c2nc3ccccc3[nH]2)cc1
inactive: 786-0 44 µM | A498 > 100 µM | A549 41.6 µM | ACHN 42.6 µM | COLO 205 24 µM | EKVX 35.9 µM | HCC 2998 41.9 µM | HT-29 36.4 µM | Malme-3M 36.3 µM | NCI-H460 34.2 µM | NCI-H522 24.7 µM | OVCAR-8 39.3 µM | SF-268 37 µM | SF-539 39.1 µM | SNB-75 29.4 µM | UACC-62 24 µM

C[C@]12CC/C(=N\OC(=O)Nc3ccccc3)C=C1CC[C@@H]1C2CC[C@@]2(C)C1CC[C@@H]2OC(=O)Nc1ccccc1 (stereo partly drawn)
inactive: 786-0 > 100 µM | A498 92.9 µM | A549 > 100 µM | ACHN 99.3 µM | COLO 205 > 100 µM | EKVX > 100 µM | HCC 2998 > 100 µM | HT-29 > 100 µM | LOX IMVI > 100 µM | NCI-H460 > 100 µM | OVCAR-8 > 100 µM | SF-268 > 100 µM | SF-539 > 100 µM | SNB-75 31.5 µM | UACC-62 59 µM

O=C1c2ccccc2C(=O)c2c1ccc1c3ccccc3n(Cc3ccccc3)c21
inactive: 786-0 > 100 µM | A549 > 100 µM | ACHN 94.2 µM | COLO 205 > 100 µM | EKVX > 100 µM | HT-29 > 100 µM | LOX IMVI > 100 µM | Malme-3M > 100 µM | NCI-H460 88.9 µM | NCI-H522 > 100 µM | OVCAR-8 > 100 µM | SF-268 > 100 µM | SF-539 > 100 µM | SNB-75 2.35 µM | UACC-62 > 100 µM

NC(=O)C12CC3CC(CC(Br)(C3)C1)C2
inactive: 786-0 > 100 µM | A498 > 100 µM | A549 > 100 µM | ACHN > 100 µM | EKVX > 100 µM | HCC 2998 > 100 µM | HT-29 > 100 µM | LOX IMVI > 100 µM | NCI-H460 > 100 µM | NCI-H522 > 100 µM | OVCAR-8 > 100 µM | SF-268 > 100 µM | SF-539 > 100 µM | SNB-75 76.7 µM | UACC-62 > 100 µM

CC1(Sc2ccccc2)CN(Cc2ccccc2)C1=O (stereo not drawn)
inactive: 786-0 > 100 µM | A498 > 100 µM | A549 > 100 µM | ACHN > 100 µM | COLO 205 > 100 µM | EKVX > 100 µM | HCC 2998 > 100 µM | HT-29 > 100 µM | LOX IMVI > 100 µM | NCI-H460 > 100 µM | NCI-H522 60.3 µM | OVCAR-8 > 100 µM | SF-268 > 100 µM | SF-539 > 100 µM | SNB-75 39.6 µM | UACC-62 > 100 µM

CC(C)[C@H]1CO[C@]2(C)[C@@H]3CN(Cc4ccccc4)C[C@@H]3C(=O)N12
inactive: 786-0 > 100 µM | A549 > 100 µM | ACHN > 100 µM | COLO 205 > 100 µM | EKVX > 100 µM | HT-29 > 100 µM | Malme-3M > 100 µM | NCI-H460 > 100 µM | NCI-H522 > 100 µM | OVCAR-8 > 100 µM | SF-268 > 100 µM | SF-539 > 100 µM | SNB-75 > 100 µM | UACC-62 > 100 µM
